Counter-ions that a name gives are not always drawn.
Assay: Comparative stability study of cyclobenzaprine hydrochloride and aceclofenac together and isolated (opened glass flasks, oven)
Type: physicochemical
Conditions: oven at 50° C. and 90% relative moisture, after 30 days

| Structure (SMILES) | content of active ingredient(s) by chromatographic analysis |
| --- | --- |
| O=C(O)COC(=O)Cc1ccccc1Nc1c(Cl)cccc1Cl [aceclofenac, 2-[2-[2-[(2,6-dichlorophenyl)amino]phenyl]acetyl]oxyacetic acid] | remained unaltered |
| CN(C)CCC=C1c2ccccc2C=Cc2ccccc21 [cyclobenzaprine hydrochloride, 3-(5H-dibenzo[a,d]cyclohepten-5-ylidene)-N,N-dimethyl-1-propanamine] | remained unaltered |

— patent US8835495B2, “Pharmaceutical composition comprising cyclobenzaprine and aceclofenac in association” (Incrementha P, D & I Pesquisa, Desenvolvimento e Inovacao …, priority 2006, dated 2014)
